# Data reported in patent US12653191B2, “Active compound combinations” (Bayer Aktiengesellschaft, priority 2020, dated 2026).
# Where two headings read alike, the source gives them in different places.
# How the values were obtained:
# Assay type in all cases: cell-based
# Alternaria alternata = test: in vitro-Test with fungal microorganisms, Method B (tables A13-A22); details: Alternaria alternata, read-out: Efficacy
# In short: (§1)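 Efficacy, relative to untreated control (0% = growth as in control, 100% = no growth), from photometric growth measurement at 600 nm after 3 to 7 days at 20° C., 85% relative humidity. Compound applied in methanol+emulsifier, solvent evaporated, then spore/mycelium-amended liquid medium added.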
# Cercospora beticola = test: in vitro-Test with fungal microorganisms, Method B (tables C11-C20); details: Cercospora beticola, read-out: Efficacy %
# In short: as §1
# Cordana musae = test: in vitro-Test with fungal microorganisms, Method B (tables E9-E16); details: Neocordana musae, single active, read-out: Efficacy
# In short: as §1
# Fusarium culmorum = test: in vitro-Test with fungal microorganisms, Method B (tables G5-G15); details: Fusarium culmorum, read-out: Efficacy
# In short: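 Compound in methanol plus alkylaryl-polyglycol-ether emulsifier dried in wells, then liquid medium containing Fusarium culmorum spores or mycelium added. Incubated 3-7 days at 20° C, 85% relative humidity; growth read at 600 nm. Efficacy relative to untreated control (0% equals control growth, 100% none).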
# Parastagonospora nodorum = test: in vitro-Test with fungal microorganisms, Method B (tables H5-H8); details: Parastagonospora nodorum, read-out: Efficacy
# Protocol: (§2) Example: In Vitro-Test with Fungal Microorganisms
# (§3) Wells of 96-well microtiter plates are filled with 30 μl of a preparation of test compound or compound combination in methanol+emulsifier alkylaryl-polyglycol-ether. Thereafter, the solvent is evaporated in a hood. At the next step, 200 μl of liquid growth medium is given, that has been amended with an appropriate concentration of spores or mycelium suspension of the test fungus.
# (§4) With the aid of a photometer, the extinction in all wells is measured at the wavelength of 600 nm.
# (§5) The microtiter plates are incubated for 3 to 7 days at 20° C. and 85% relative humidity. After the incubation inhibition of growth is determined photometrically. Efficacy is calculated in relation to the untreated control, 0% efficacy means fungal growth as high as in untreated control while 100% efficacy means no fungal growth is measured.
# (§6) The data in tables A1 to A12, B1 to B14, C1 to C10, D1 to D8, E1 to E8, F1 to F11, G1 to G4, H1 to H4 and I1 to I5 were collected according to Method A. The data in tables A13 to A22, B15 to B18, C11 to C20, E9 to E16, F12 to F15, G5 to G15, H5 to H8, I6 to I11 and J1 to J11 were collected according to Method B.
# [1] = tested on: Ustilago segetum var. avenae; test: in vitro-Test with fungal microorganisms, Method B (tables I6-I11); details: read-out: Efficacy %
# In short: as §1
# Colletotrichum coccodes = test: in vitro-Test with fungal microorganisms, Method B (tables J1-J11); details: Colletotrichum coccodes, read-out: Efficacy %
# In short: as §1
# Botrytis cinerea = test: in vitro-Test with fungal microorganisms, Method B (tables B15-B18); details: Botrytis cinerea, read-out: Efficacy %
# In short: as §1
# Diaporthe citri = test: in vitro-Test with fungal microorganisms, Method B (tables F12-F15); details: Table F13
# Protocol: as §2, §3, §4, §5, §6
# [2] = single active compound at 0.08 ppm
# [3] = single active compound at 2 ppm
structure (smiles),measurement,setting,value
"CCN(C)C=Nc1cc(C)c(Oc2cccc(SC(F)(F)C(F)F)c2)cc1C [(1.067), N′-(2,5-dimethyl-4-{3-[(1,1,2,2-tetrafluoro-ethyl)sulfanyl]-phenoxy}phenyl)-N-ethyl-N-methyl-imidoformamide]",inhibition of growth at 2 ppm,Alternaria alternata; 2 ppm,74%
same,inhibition of growth at 0.08 ppm,Cercospora beticola; single compound,0%
same,inhibition of growth at 0.4 ppm,Cercospora beticola; single compound,68%
same,inhibition of growth at 2 ppm,"Cercospora beticola; single compound, 2 ppm",100%
same,inhibition of growth at 0.08 ppm,Cordana musae,0%
same,inhibition of growth at 0.4 ppm,Cordana musae; 0.4 ppm,14%
same,inhibition of growth at 2 ppm,Cordana musae; 2 ppm,100%
same,inhibition of growth at 0.08 ppm,Fusarium culmorum; alone,30%
same,inhibition of growth at 0.4 ppm,Fusarium culmorum; alone,26%
same,inhibition of growth at 2 ppm,Fusarium culmorum; alone,99%
same,inhibition of growth at 0.08 ppm,Fusarium culmorum; single active compound,22%
same,inhibition of growth at 2 ppm,Fusarium culmorum; single active compound,97%
same,inhibition of growth at 0.08 ppm,Parastagonospora nodorum; 0.08 ppm,94%
same,inhibition of growth at 0.4 ppm,Parastagonospora nodorum; 0.4 ppm,100%
same,inhibition of growth at 0.08 ppm,[1]; alone,100%
same,inhibition of growth at 0.4 ppm,Colletotrichum coccodes; 0.4 ppm,0%
same,inhibition of growth at 2 ppm,Colletotrichum coccodes; 2 ppm,99%
same,inhibition of growth at 0.08 ppm,Colletotrichum coccodes; [2],1%
same,inhibition of growth at 0.4 ppm,Colletotrichum coccodes; single active compound at 0.4 ppm,12%
same,inhibition of growth at 2 ppm,Colletotrichum coccodes; [3],97%
"CO/N=C(/C1=NOCCO1)c1ccccc1Oc1ncnc(Oc2ccccc2Cl)c1F [(3.012) fluoxastrobin, fluoxastrobin]",inhibition of growth at 4 ppm,Alternaria alternata; 4 ppm,68%
same,inhibition of growth at 20 ppm,Alternaria alternata; 20 ppm,92%
same,inhibition of growth at 0.4 ppm,"Alternaria alternata; single compound, 0.4 ppm",70%
same,inhibition of growth at 0.4 ppm,Botrytis cinerea; 0.4 ppm alone,20%
same,inhibition of growth at 2 ppm,Botrytis cinerea; 2 ppm alone,31%
same,inhibition of growth at 0.4 ppm,Cercospora beticola,100%
same,inhibition of growth at 0.08 ppm,Cercospora beticola; single compound,96%
same,inhibition of growth at 0.4 ppm,Cercospora beticola; single compound,100%
same,inhibition of growth at 0.08 ppm,Cordana musae,3%
same,Efficacy,Diaporthe citri; 0.4 ppm alone,83%
same,Efficacy,Diaporthe citri; 2 ppm alone,96%
same,inhibition of growth at 0.08 ppm,Fusarium culmorum; alone,19%
same,inhibition of growth at 0.08 ppm,Fusarium culmorum; single active compound,27%
same,inhibition of growth at 0.4 ppm,Fusarium culmorum; single active compound,47%
same,inhibition of growth at 2 ppm,Fusarium culmorum; single active compound,37%
same,inhibition of growth at 0.08 ppm,[1],18%
same,inhibition of growth at 0.4 ppm,[1]; 0.4 ppm,51%
same,inhibition of growth at 0.08 ppm,[1]; alone,16%
same,inhibition of growth at 0.08 ppm,Colletotrichum coccodes; 0.08 ppm,41%
same,inhibition of growth at 0.08 ppm,Colletotrichum coccodes; [2],0%
same,inhibition of growth at 2 ppm,Colletotrichum coccodes; [3],0%
